Source: patent US9650339B2, “Inhibitors of histone demethylases” (Gilead Sciences, Inc., priority 2013, dated 2017)

Tests used:
Type in all cases: biochemical
KDM3A (JMJD1A) = molecular target: T1, KDM3A (JMJD1A) (Homo sapiens, UniProt Q9Y4C1); assay: Histone lysine demethylase AlphaLISA assay, KDM3A; conditions: read-out: KDM3 A HDME Inhibition IC50
T1 construct: 2-end; purchased BPS Bioscience, US; host or cells: Bac (baculovirus system)
T1 sequence (Q9Y4C1 2-1321 limits assumed): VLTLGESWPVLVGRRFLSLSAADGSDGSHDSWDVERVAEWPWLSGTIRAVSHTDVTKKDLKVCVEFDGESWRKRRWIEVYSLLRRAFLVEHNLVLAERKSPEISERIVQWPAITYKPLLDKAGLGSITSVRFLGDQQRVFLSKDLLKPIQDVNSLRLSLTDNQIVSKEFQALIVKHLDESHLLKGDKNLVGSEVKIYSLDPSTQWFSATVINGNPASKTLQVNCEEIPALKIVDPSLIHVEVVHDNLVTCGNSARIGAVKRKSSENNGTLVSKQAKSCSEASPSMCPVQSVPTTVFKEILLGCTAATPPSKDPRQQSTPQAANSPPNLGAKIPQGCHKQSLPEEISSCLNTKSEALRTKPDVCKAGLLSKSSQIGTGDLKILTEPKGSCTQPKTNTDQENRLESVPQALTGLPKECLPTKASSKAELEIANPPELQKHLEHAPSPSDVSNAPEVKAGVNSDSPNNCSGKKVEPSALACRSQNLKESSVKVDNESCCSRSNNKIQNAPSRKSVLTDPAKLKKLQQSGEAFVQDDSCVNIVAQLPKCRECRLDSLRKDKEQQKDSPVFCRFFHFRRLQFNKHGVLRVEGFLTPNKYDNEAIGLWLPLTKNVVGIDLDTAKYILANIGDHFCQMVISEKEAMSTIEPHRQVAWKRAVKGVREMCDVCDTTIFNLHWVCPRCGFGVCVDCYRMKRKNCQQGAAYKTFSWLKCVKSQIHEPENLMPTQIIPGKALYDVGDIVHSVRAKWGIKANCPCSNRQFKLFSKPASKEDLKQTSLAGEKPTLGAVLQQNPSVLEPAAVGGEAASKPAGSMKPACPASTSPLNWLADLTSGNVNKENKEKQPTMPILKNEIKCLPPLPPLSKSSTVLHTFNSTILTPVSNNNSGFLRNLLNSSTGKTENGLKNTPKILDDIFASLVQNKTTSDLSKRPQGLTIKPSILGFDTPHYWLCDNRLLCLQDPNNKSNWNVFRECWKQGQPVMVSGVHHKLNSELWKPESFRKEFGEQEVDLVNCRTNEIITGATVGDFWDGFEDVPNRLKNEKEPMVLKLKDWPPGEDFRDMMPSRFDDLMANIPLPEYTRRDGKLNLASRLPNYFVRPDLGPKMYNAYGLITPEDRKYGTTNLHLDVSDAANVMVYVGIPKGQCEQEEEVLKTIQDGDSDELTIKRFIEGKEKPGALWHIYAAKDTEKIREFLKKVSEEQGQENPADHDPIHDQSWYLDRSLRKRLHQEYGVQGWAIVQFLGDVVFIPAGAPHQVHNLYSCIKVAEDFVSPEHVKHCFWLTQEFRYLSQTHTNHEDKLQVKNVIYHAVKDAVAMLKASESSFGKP
Experimental: (§1) Assays are performed analogously to the protocol described by PerkinElmer (Roy et al. PerkinElmer Technical Note: AlphaLISA #12, April 2011)
(§2) Enzymes are dissolved in enzyme buffer and incubated for 10 min before being added to 3% DMSO solutions of compounds in enzyme buffer. Incubated for another 10 minutes, before substrate solution is added and the reaction mixture is incubated at room temperature. 10 μL acceptor beads, suspended in Epigenetic Buffer (Perkin Elmer AL008) from stock, are added and the suspension is incubated in the dark at room temperature, before a suspension of streptavidin donor beads (Perkin Elmer 6760002) in Epigenetic Buffer is added. After incubation at room temperature in the dark the plates are read. […]
BK9M2: Biotin-ARTKQTAR(KMe2)STGGKAPRKQ-NH2 (AnaSpec 64359) […]
(§3) Substrate Solution: Substrate, 25 μM L-Asc, and 10 μM α-KG in Buffer A.

KDM5C (JARID1C) = molecular target: T2, KDM5C (JARID1C) (Homo sapiens, UniProt P41229); assay: Histone lysine demethylase AlphaLISA assay, KDM5C; conditions: read-out: KDM5C HDME Inhibition IC50
T2 construct: 2-1560; purchased BPS; host or cells: Bac (baculovirus system)
T2 sequence (P41229 2-1560): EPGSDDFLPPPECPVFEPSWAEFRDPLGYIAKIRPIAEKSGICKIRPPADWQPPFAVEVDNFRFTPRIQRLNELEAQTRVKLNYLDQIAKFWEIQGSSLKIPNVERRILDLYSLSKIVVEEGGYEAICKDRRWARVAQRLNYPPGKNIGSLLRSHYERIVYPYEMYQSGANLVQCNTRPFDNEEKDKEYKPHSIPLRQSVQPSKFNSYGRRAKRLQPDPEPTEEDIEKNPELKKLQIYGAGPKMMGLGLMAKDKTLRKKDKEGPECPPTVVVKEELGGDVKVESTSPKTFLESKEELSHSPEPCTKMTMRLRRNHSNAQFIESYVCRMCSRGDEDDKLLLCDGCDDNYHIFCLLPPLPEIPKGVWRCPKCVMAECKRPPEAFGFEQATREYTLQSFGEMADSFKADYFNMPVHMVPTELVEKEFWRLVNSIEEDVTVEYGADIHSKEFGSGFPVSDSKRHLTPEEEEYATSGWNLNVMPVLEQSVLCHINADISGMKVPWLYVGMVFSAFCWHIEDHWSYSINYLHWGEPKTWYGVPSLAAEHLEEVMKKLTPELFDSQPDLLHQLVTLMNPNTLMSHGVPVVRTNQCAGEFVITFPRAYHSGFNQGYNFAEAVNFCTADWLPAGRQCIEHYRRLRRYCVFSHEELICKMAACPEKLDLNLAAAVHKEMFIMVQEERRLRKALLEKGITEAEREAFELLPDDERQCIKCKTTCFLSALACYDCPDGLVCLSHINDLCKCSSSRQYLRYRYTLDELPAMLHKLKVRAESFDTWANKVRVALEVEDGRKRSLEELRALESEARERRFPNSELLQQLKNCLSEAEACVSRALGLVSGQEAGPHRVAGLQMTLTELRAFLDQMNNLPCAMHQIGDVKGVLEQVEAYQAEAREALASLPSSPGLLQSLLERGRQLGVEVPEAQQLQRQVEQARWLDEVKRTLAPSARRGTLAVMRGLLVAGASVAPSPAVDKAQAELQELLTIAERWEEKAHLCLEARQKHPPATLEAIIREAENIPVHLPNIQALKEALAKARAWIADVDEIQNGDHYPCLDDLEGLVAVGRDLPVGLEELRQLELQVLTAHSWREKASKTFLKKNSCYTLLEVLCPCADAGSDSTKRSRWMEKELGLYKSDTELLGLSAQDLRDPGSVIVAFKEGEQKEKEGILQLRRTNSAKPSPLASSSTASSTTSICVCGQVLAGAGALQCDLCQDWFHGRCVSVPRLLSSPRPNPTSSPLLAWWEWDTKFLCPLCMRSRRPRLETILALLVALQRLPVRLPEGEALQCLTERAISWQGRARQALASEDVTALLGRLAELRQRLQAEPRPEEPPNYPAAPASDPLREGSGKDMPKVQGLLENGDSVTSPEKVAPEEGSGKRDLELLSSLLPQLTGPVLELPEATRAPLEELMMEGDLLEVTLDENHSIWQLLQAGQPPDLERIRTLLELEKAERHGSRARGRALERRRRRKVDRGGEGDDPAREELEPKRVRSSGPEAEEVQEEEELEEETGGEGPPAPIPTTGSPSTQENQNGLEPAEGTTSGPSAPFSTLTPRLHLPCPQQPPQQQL
Experimental: as §1, §2
H3K4M3B: H-ART(Kme3)QTARKSTGGKAPRKQLA-NH-Biotin (Caslo, Denmark) […]
as §3

KDM5B (PLU-1) = molecular target: T3, KDM5B (PLU-1) (Homo sapiens, UniProt Q9UGL1); assay: Histone lysine demethylase AlphaLISA assay, KDM5B; conditions: read-out: KDM5B HDME Inhibition IC50
T3 sequence (Q9UGL1 1-809): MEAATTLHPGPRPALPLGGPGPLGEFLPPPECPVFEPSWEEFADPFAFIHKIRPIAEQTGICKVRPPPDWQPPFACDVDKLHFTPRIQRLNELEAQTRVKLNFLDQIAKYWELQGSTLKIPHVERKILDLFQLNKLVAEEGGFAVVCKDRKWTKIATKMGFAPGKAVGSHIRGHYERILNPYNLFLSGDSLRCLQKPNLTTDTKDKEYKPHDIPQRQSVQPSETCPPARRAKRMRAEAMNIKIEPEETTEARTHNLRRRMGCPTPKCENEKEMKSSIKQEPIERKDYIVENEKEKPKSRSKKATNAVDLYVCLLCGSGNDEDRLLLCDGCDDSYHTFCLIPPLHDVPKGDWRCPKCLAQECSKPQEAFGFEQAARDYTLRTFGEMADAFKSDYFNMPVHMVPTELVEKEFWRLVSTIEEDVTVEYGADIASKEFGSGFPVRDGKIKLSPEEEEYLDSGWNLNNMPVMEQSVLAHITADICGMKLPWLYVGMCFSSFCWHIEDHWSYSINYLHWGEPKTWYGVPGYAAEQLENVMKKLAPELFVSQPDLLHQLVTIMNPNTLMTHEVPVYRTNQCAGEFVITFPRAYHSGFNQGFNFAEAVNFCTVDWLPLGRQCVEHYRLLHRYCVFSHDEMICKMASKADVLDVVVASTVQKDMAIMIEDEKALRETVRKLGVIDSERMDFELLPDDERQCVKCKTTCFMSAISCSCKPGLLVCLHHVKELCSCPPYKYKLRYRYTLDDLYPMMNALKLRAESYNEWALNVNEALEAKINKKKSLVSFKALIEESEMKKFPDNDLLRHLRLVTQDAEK
Outline: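 Each enzyme was pre-incubated 10 min in buffer, then 10 min with compound in 3% DMSO solution. The reaction started with biotinylated histone H3 peptide substrate plus 25 μM L-ascorbate and 10 μM α-KG at room temperature. Detection used AlphaLISA acceptor beads, then streptavidin donor beads, in the dark.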

KDM7 (PHF8) = molecular target: T4, KDM7 (PHF8) (Homo sapiens, UniProt Q9UPP1); assay: Histone lysine demethylase AlphaLISA assay, KDM7; conditions: read-out: PHF8 HDME Inhibition IC50
T4 construct: KDM7 (PHF8); BRIC; 1-1322; Bac
T4 sequence (Q9UPP1 37-440 limits assumed): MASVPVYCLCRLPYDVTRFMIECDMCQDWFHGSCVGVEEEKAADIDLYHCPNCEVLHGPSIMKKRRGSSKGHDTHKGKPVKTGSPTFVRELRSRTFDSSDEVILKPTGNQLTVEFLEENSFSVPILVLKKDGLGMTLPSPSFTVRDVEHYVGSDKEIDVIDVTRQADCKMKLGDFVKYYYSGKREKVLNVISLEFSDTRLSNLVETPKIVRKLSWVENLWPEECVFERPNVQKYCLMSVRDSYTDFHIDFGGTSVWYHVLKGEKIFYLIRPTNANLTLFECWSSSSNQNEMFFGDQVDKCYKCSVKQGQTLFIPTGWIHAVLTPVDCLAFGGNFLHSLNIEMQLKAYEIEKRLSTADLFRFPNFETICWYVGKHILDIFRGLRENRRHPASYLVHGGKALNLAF
Experimental: as §1, §2
BK9M2: Biotin-ARTKQTAR(KMe2)STGGKAPRKQ-NH2 (AnaSpec 64359)
BK9M1: Biotin-ARTKQTAR(KMe1)STGGKAPRKQ-NH2 (AnaSpec 64358) […]
as §3

| IC50 (KDM3A (JMJD1A)) [nM] | IC50 (KDM5C (JARID1C)) [nM] | IC50 (KDM5B (PLU-1)) [nM] | IC50 (KDM7 (PHF8)) [nM] | SMILES |
| --- | --- | --- | --- | --- |
| > 2500 | < 250 | < 250 | 250 to 2500 | CCN(CCN(C)C)C(=O)CNCc1cc(CN)ccn1 [Compound 4, 2-({[4-(aminomethyl)pyridin-2-yl]methyl}amino)-N-[2-(dimethylamino)ethyl]-N-ethylacetamide] |
| > 2500 | 250 to 2500 | 250 to 2500 | > 2500 | CN(C)C(=O)CNCc1cc(CNCCF)ccn1 [Compound 14, 2-{[(4-{[(2-fluoroethyl)amino]-methyl}pyridin-2-yl)methyl]amino}-N,N-dimethylacetamide] |
| > 2500 | 250 to 2500 | < 250 | > 2500 | CN(C)CCNCc1ccnc(CNCC(=O)N(C)C)c1 [Compound 15, 2-({[4-({[2-(dimethylamino)ethyl]-amino}methyl)pyridin-2-yl]methyl}amino)-N,N-dimethylacetamide] |
| > 2500 | < 250 | 250 to 2500 | > 2500 | CC(C#N)NCc1ccnc(CNCCCN(C)C)c1 (stereo not shown) [Compound 22, 2-({[2-({[3-(dimethylamino)propyl]-amino}methyl)pyridin-4-yl]methyl}amino)-propanenitrile] |
| > 2500 | 250 to 2500 | 250 to 2500 | > 2500 | CCN(CCN(C)C)C(=O)CNCc1cc(CNC(=O)C(F)(F)F)ccn1 [Compound 25, N-[(2-{[({[2-(dimethylamino)ethyl]-(ethyl)carbamoyl}-methyl)amino]methyl}-pyrtdin-4-yl)methyl]-2,2,2-trifluoroacetamide] |

The remaining lines, values behind:

| SMILES | IC50 (KDM3A (JMJD1A)) [nM] | IC50 (KDM5C (JARID1C)) [nM] | IC50 (KDM5B (PLU-1)) [nM] | IC50 (KDM7 (PHF8)) [nM] |
| --- | --- | --- | --- | --- |
| CCN(CC)CCCCNCc1cc(CNC(=O)C(F)(F)F)ccn1 [Compound 1, N-{[2-({[4-(diethylamino)butyl]-amino}methyl)pyridin-4-yl]methyl}-2,2,2-trifluoroacetamide] | > 2500 | 250 to 2500 | 250 to 2500 | 250 to 2500 |
| CCN(CC)CCCCN(Cc1cc(CNC(=O)C(F)(F)F)ccn1)C(=O)C(F)(F)F [Compound 6, N-[4-(diethylamino)butyl]-- 2,2,2-trifluoro-N-({4-[(trifluoroacetamido)-methyl]pyridin-2-yl}methyl)acetamide] | > 2500 | > 2500 | > 2500 | 250 to 2500 |
| CN(C)CCCCCNCc1cc(CN)ccn1 [Compound 8, [2-({[5-(dimethylamino)pentyl]-amino}methyl)pyridin-4-yl]methanamine] | > 2500 | < 250 | < 250 | > 2500 |
| COc1ccccc1CN1CCC(NC(=O)CNCc2cc(CN)ccn2)CC1 [Compound 9, 2-({[4-(aminomethyl)pyridin-2-yl]methyl}amino)-N-{1-[(2-methoxyphenyl)methyl]-piperidin-4-yl}acetamide] | > 2500 | < 250 | 250 to 2500 | > 2500 |
| CCCNCc1cc(CNC2CC2)ccn1 [Compound 12, N-({2-[(propylamino)methyl]-pyridin-4-yl}methyl)-cyclopropanamine] | > 2500 | > 2500 | 250 to 2500 | > 2500 |
| c1ccc(CN2CCC[C@H]2CNCc2cc(CNCC3CC3)ccn2)cc1 [Compound 16, {[(2S)-1-benzylpyrrolidin-2-yl]methyl}[(4-{[(cyclopropylmethyl)-amino]methyl}pyridin-2-yl)methyl]amine] | > 2500 | 250 to 2500 | 250 to 2500 | 250 to 2500 |
| CNCc1ccnc(CNCCCN(C)Cc2ccccc2)c1 [Compound 17, benzyl(methyl){3-[({4-[(methylamino)methyl]-pyridin-2-yl)methyl)-amino]propyl}-amine] | > 2500 | < 250 | < 250 | > 2500 |
| CN(C)CCNCc1cc(CNC(C#N)C2CC2)ccn1 (stereo not shown) [Compound 21, 2-cyclopropyl-2-({[2-({[2-(dimethylamino)ethyl]-amino}methyl)pyridin-4-yl]methyl}amino)-acetonitrile] | > 2500 | > 2500 | > 2500 | > 2500 |
| N#CCNCc1ccnc(CNCCCCN(Cc2ccccc2)C2CC2)c1 [Compound 23, 2-[({2-[({4-[benzyl(cyclopropyl)-amino]butyl}amino)-methyl]pyridin-4-yl}methyl)amino]-acetonitrile] | > 2500 | < 250 | 250 to 2500 | > 2500 |
| CNC(C#N)c1ccnc(CNCCCN(C)C)c1 (stereo not shown) [Compound 24, 2-[2-({[3-(dimethylamino)propyl]-amino}methyl)pyridin-4-yl]-2-(methylamino)-acetonitrile] | > 2500 | < 250 | < 250 | > 2500 |
| CN(C)C(=O)CNCc1cc(/C=N/CCCc2ccccc2)ccn1 [Compound 34, N,N-dimethyl-2-[({4-[[(3-phenylpropyl)imino]-methyl]pyridin-2-yl}methyl)amino]-acetamide] | > 2500 | < 250 | < 250 | > 2500 |
| CCN(CC)CCCCNC(=O)CNCc1cc(C=O)ccn1 [Compound 112, N-[4-(diethylamino)-butyl]-2-{[(4-formylpyridin-2-yl)methyl]amino}-acetamide] | > 2500 | < 250 | – | < 250 |
